Consider 24 molecules from patent publication US10351546B2, “Pyridin-3-yl acetic acid derivatives as inhibitors of human immunodeficiency virus replication” (priority 2015, dated 2019).

Molecules are shown by their SMILES. Like-named read-outs stand apart in the source and are kept apart here.

In this assay the test system is NL-RLuc virus. The assay is described as follows: Inhibition of HIV replication (NL-RLuc luciferase reporter virus in MT-2 cells). It is filed as cell-based. The note with it: Human immunodeficiency virus 1, MT2, 120 h. The procedure, abridged: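 MT-2 cells were infected with NL4-3-derived virus carrying Renilla luciferase in place of part of nef, in RPMI/10% FBS, with serial compound dilutions. Luciferase read after 5 days of multicycle replication. EC50 from the median effect equation, at least 2 experiments.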
In general terms: In a reporter assay the amount or activity of a reporter protein is the signal.

Consider `COc1ccc(Cc2nc(C)c([C@H](OC(C)(C)C)C(=O)O)c(N3CCC(C)(C)CC3)c2-c2ccc(OCCc3ccc(F)cc3)cc2)cc1` [Example 60, (S)-2-(tert-Butoxy)-2-(4-(4,4-dimethylpiperidin-1-yl)-5-(4-(4-fluorophenethoxy)phenyl)-6-(4-methoxybenzyl)-2-methylpyridin-3-yl)acetic acid], for which the EC50 (read-out: Activity) was under 0.1 µM.
The same measure, in the same setting: under `C=Cc1nc(C)c([C@H](OC(C)(C)C)C(=O)O)c(N2CCC(C)(C)CC2)c1-c1ccc(OCCc2ccc(F)cc2)cc1` [Example 61, (S)-2-(tert-Butoxy)-2-(4-(4,4-dimethylpiperidin-1-yl)-5-(4-(4-fluorophenethoxy)phenyl)-2-methyl-6-vinylpyridin-3-yl)acetic acid] stands under 0.1 µM; under `Cc1ncc(Br)c(N2CCC(C)(C)CC2)c1[C@H](OC(C)(C)C)C(=O)O` [Example 62, (S)-2-(5-Bromo-4-(4,4-dimethylpiperidin-1-yl)-2-methylpyridin-3-yl)-2-(tert-butoxy)acetic acid], under 0.1 µM; under `Cc1ncc(-c2ccc(OCCc3ccc(F)cc3)cc2)c(N2CCC(C)(C)CC2)c1[C@H](OC(C)(C)C)C(=O)O` [Example 63, (S)-2-(tert-Butoxy)-2-(4-(4,4-dimethylpiperidin-1-yl)-5-(4-(4-fluorophenethoxy)phenyl)-2-methylpyridin-3-yl)acetic acid], under 0.1 µM.
In the case of `CNCc1nc(C)c([C@H](OC(C)(C)C)C(=O)O)c(N2CCC(C)(C)CC2)c1-c1ccc(OCCc2ccc(F)cc2)cc1` [Example 64, (S)-2-(tert-Butoxy)-2-(4-(4,4-dimethylpiperidin-1-yl)-5-(4-(4-fluorophenethoxy)phenyl)-2-methyl-6-((methylamino)methyl)pyridin-3-yl)acetic acid], the EC50 (read-out: Activity) was under 0.1 µM.
In the case of `Cc1nc(CN(C)C)c(-c2ccc(OCCc3ccc(F)cc3)cc2)c(N2CCC(C)(C)CC2)c1[C@H](OC(C)(C)C)C(=O)O` [Example 65, (S)-2-(tert-Butoxy)-2-(6-((dimethylamino)methyl)-4-(4,4-dimethylpiperidin-1-yl)-5-(4-(4-fluorophenethoxy)phenyl)-2-methylpyridin-3-yl)acetic acid], the EC50 (read-out: Activity) was under 0.1 µM.
The same measure, in the same setting: under `Cc1nc(CNC(C)C)c(-c2ccc(OCCc3ccc(F)cc3)cc2)c(N2CCC(C)(C)CC2)c1[C@H](OC(C)(C)C)C(=O)O` [Example 66, (S)-2-(tert-Butoxy)-2-(4-(4,4-dimethylpiperidin-1-yl)-5-(4-(4-fluorophenethoxy)phenyl)-6-((isopropylamino)methyl)-2-methylpyridin-3-yl)acetic acid] stands under 0.1 µM.
Still for that read-out and setting: next, `Cc1nc(CNCC2CCOCC2)c(-c2ccc(OCCc3ccc(F)cc3)cc2)c(N2CCC(C)(C)CC2)c1[C@H](OC(C)(C)C)C(=O)O` [Example 67, (S)-2-(tert-Butoxy)-2-(4-(4,4-dimethylpiperidin-1-yl)-5-(4-(4-fluorophenethoxy)phenyl)-2-methyl-6-((((tetrahydro-2H-pyran-4-yl)methyl)amino)methyl)pyridin-3-yl)acetic acid]: under 0.1 µM.
On to `COCCNCc1nc(C)c([C@H](OC(C)(C)C)C(=O)O)c(N2CCC(C)(C)CC2)c1-c1ccc(OCCc2ccc(F)cc2)cc1` [Example 68, (S)-2-(tert-Butoxy)-2-(4-(4,4-dimethylpiperidin-1-yl)-5-(4-(4-fluorophenethoxy)phenyl)-6-(((2-methoxyethyl)amino)methyl)-2-methylpyridin-3-yl)acetic acid], for which the EC50 (read-out: Activity) is under 0.1 µM.
With `Cc1nc(CNCCO)c(-c2ccc(OCCc3ccc(F)cc3)cc2)c(N2CCC(C)(C)CC2)c1[C@H](OC(C)(C)C)C(=O)O` [Example 69, (S)-2-(tert-Butoxy)-2-(4-(4,4-dimethylpiperidin-1-yl)-5-(4-(4-fluorophenethoxy)phenyl)-6-(((2-hydroxyethyl)amino)methyl)-2-methylpyridin-3-yl)acetic acid], where the note is “read-out: Activity”, the EC50 is under 0.1 µM.
With `Cc1nc(CN2CCOCC2)c(-c2ccc(OCCc3ccc(F)cc3)cc2)c(N2CCC(C)(C)CC2)c1[C@H](OC(C)(C)C)C(=O)O` [Example 70, (S)-2-(tert-Butoxy)-2-(4-(4,4-dimethylpiperidin-1-yl)-5-(4-(4-fluorophenethoxy)phenyl)-2-methyl-6-(morpholinomethyl)pyridin-3-yl)acetic acid], the EC50 (read-out: Activity) is under 0.1 µM.
For the molecule `CCNCc1nc(C)c([C@H](OC(C)(C)C)C(=O)O)c(N2CCC(C)(C)CC2)c1-c1ccc(OCCc2ccc(F)cc2)cc1` [Example 71, (S)-2-(tert-Butoxy)-2-(4-(4,4-dimethylpiperidin-1-yl)-6-((ethylamino)methyl)-5-(4-(4-fluorophenethoxy)phenyl)-2-methylpyridin-3-yl)acetic acid], the EC50 was under 0.1 µM (read-out: Activity) and 0.002 µM (read-out: EC50 μM).
With `Cc1nc(CNCc2ccccc2)c(-c2ccc(OCCc3ccc(F)cc3)cc2)c(N2CCC(C)(C)CC2)c1[C@H](OC(C)(C)C)C(=O)O` [Example 72, (S)-2-(6-((Benzylamino)methyl)-4-(4,4-dimethylpiperidin-1-yl)-5-(4-(4-fluorophenethoxy)phenyl)-2-methylpyridin-3-yl)-2-(tert-butoxy)acetic acid], where the note is “read-out: Activity”, the EC50 is under 0.1 µM.
On to `Cc1nc(CNc2ccccc2)c(-c2ccc(OCCc3ccc(F)cc3)cc2)c(N2CCC(C)(C)CC2)c1[C@H](OC(C)(C)C)C(=O)O` [Example 73, (S)-2-(tert-Butoxy)-2-(4-(4,4-dimethylpiperidin-1-yl)-5-(4-(4-fluorophenethoxy)phenyl)-2-methyl-6-((phenylamino)methyl)pyridin-3-yl)acetic acid], for which the EC50 (read-out: Activity) is under 0.1 µM.
Consider `Cc1nc(CNCc2ccncc2)c(-c2ccc(OCCc3ccc(F)cc3)cc2)c(N2CCC(C)(C)CC2)c1[C@H](OC(C)(C)C)C(=O)O` [Example 74, (S)-2-(tert-Butoxy)-2-(4-(4,4-dimethylpiperidin-1-yl)-5-(4-(4-fluorophenethoxy)phenyl)-2-methyl-6-(((pyridin-4-ylmethyl)amino)methyl)pyridin-3-yl)acetic acid], for which, for the setting “read-out: Activity”, the EC50 was under 0.1 µM.
Take `Cc1nc(CN2CCCC2)c(-c2ccc(OCCc3ccc(F)cc3)cc2)c(N2CCC(C)(C)CC2)c1[C@H](OC(C)(C)C)C(=O)O` [Example 75, (S)-2-(tert-Butoxy)-2-(4-(4,4-dimethylpiperidin-1-yl)-5-(4-(4-fluorophenethoxy)phenyl)-2-methyl-6-(pyrrolidin-1-ylmethyl)pyridin-3-yl)acetic acid]: the EC50 (read-out: Activity) is under 0.1 µM.
Still for that read-out and setting: under `Cc1nc(CNCC2COC2)c(-c2ccc(OCCc3ccc(F)cc3)cc2)c(N2CCC(C)(C)CC2)c1[C@H](OC(C)(C)C)C(=O)O` [Example 76, (S)-2-(tert-Butoxy)-2-(4-(4,4-dimethylpiperidin-1-yl)-5-(4-(4-fluorophenethoxy)phenyl)-2-methyl-6-(((oxetan-3-ylmethyl)amino)methyl)pyridin-3-yl)acetic acid] stands under 0.1 µM.
As to `Cc1nc(CNC2COC2)c(-c2ccc(OCCc3ccc(F)cc3)cc2)c(N2CCC(C)(C)CC2)c1[C@H](OC(C)(C)C)C(=O)O` [Example 77, (S)-2-(tert-Butoxy)-2-(4-(4,4-dimethylpiperidin-1-yl)-5-(4-(4-fluorophenethoxy)phenyl)-2-methyl-6-((oxetan-3-ylamino)methyl)pyridin-3-yl)acetic acid], the EC50 was under 0.1 µM (read-out: Activity) and 0.067 µM (read-out: EC50 μM).
As for `Cc1nc(CNCc2cocn2)c(-c2ccc(OCCc3ccc(F)cc3)cc2)c(N2CCC(C)(C)CC2)c1[C@H](OC(C)(C)C)C(=O)O` [Example 78, (S)-2-(tert-Butoxy)-2-(4-(4,4-dimethylpiperidin-1-yl)-5-(4-(4-fluorophenethoxy)phenyl)-2-methyl-6-(((oxazol-4-ylmethyl)amino)methyl)pyridin-3-yl)acetic acid], the EC50 (read-out: Activity) is under 0.1 µM.
The same measure, in the same setting: under `Cc1nc(CN2CCSCC2)c(-c2ccc(OCCc3ccc(F)cc3)cc2)c(N2CCC(C)(C)CC2)c1[C@H](OC(C)(C)C)C(=O)O` [Example 79, (S)-2-(tert-Butoxy)-2-(4-(4,4-dimethylpiperidin-1-yl)-5-(4-(4-fluorophenethoxy)phenyl)-2-methyl-6-(thiomorpholinomethyl)pyridin-3-yl)acetic acid] stands under 0.1 µM; under `Cc1nc(CN2CCCCC2)c(-c2ccc(OCCc3ccc(F)cc3)cc2)c(N2CCC(C)(C)CC2)c1[C@H](OC(C)(C)C)C(=O)O` [Example 80, (S)-2-(tert-Butoxy)-2-(4-(4,4-dimethylpiperidin-1-yl)-5-(4-(4-fluorophenethoxy)phenyl)-2-methyl-6-(piperidin-1-ylmethyl)pyridin-3-yl)acetic acid], under 0.1 µM; under `Cc1nc(CN2CCC2)c(-c2ccc(OCCc3ccc(F)cc3)cc2)c(N2CCC(C)(C)CC2)c1[C@H](OC(C)(C)C)C(=O)O` [Example 81, (S)-2-(6-(Azetidin-1-ylmethyl)-4-(4,4-dimethylpiperidin-1-yl)-5-(4-(4-fluorophenethoxy)phenyl)-2-methylpyridin-3-yl)-2-(tert-butoxy)acetic acid], under 0.1 µM.
In the case of `Cc1nc(CN2CCC3(CCC3)CC2)c(-c2ccc(OCCc3ccc(F)cc3)cc2)c(N2CCC(C)(C)CC2)c1[C@H](OC(C)(C)C)C(=O)O` [Example 82, (S)-2-(6-(7-Azaspiro[3.5]nonan-7-ylmethyl)-4-(4,4-dimethylpiperidin-1-yl)-5-(4-(4-fluorophenethoxy)phenyl)-2-methylpyridin-3-yl)-2-(tert-butoxy)acetic acid], for the setting “read-out: Activity”, the EC50 is under 0.1 µM.
On the same count and under the same terms, under `Cc1nc(CN2CCS(=O)(=O)CC2)c(-c2ccc(OCCc3ccc(F)cc3)cc2)c(N2CCC(C)(C)CC2)c1[C@H](OC(C)(C)C)C(=O)O` [Example 83, (S)-2-(tert-Butoxy)-2-(4-(4,4-dimethylpiperidin-1-yl)-6-((1,1-dioxidothiomorpholino)methyl)-5-(4-(4-fluorophenethoxy)phenyl)-2-methylpyridin-3-yl)acetic acid] stands under 0.1 µM.
